From patent publication US10414811B2, “Protease-resistant lipidated GLP-1 analogs” (MEDIMMUNE LIMITED, priority 2015, dated 2019)
Like-named read-outs stand apart in the source and are kept apart here. Numbered stars: 1 amine (or outer) side, 2 acyl side, 3 side chain; on linkers, the order of the positions; unused ones are H or OH. Square brackets hold non-standard residues; d marks the D form. Side chains are listed from the residue outwards. Peptide text beside a SMILES is read from it. * marks the point of attachment. γGlu = O=C(O)[C@H](CCC(=O)[*:2])N[*:1]; Palmitoyl = CCCCCCCCCCCCCCCC(=O)*; αMeF = C[C@](N)(Cc1ccccc1)C(=O)O; αMeK = C[C@](N)(CCCCN)C(=O)O; Lauroyl = CCCCCCCCCCCC(=O)*; αMeS = C[C@](N)(CO)C(=O)O; AEEA = NCCOCCOCC(=O)O; Aib = CC(C)(N)C(=O)O

Columns and labels:
Assay type in all cases: cell-based
[1] = target: T1, human GLP-1 receptor (GLP-1R) (Homo sapiens, UniProt P43220); assay: cAMP assay, human GLP-1R cells
T1 construct: expressed in transfected cells
T1 sequence (P43220 24-463): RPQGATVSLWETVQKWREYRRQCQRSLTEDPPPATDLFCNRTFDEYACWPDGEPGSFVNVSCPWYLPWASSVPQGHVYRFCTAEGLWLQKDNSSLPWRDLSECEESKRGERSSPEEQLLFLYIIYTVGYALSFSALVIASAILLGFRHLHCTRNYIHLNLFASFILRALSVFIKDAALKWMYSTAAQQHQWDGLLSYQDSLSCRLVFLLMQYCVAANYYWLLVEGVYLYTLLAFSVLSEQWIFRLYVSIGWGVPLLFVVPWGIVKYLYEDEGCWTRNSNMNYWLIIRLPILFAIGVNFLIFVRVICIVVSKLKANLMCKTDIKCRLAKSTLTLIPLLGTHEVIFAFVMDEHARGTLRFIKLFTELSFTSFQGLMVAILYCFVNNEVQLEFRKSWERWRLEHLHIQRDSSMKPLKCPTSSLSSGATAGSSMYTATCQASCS
How it was run: (§1)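 Peptide-stimulated cAMP measured by two-step HTRF after a 30 min room-temperature incubation with receptor-expressing cells (hGLP-1R, hGIPR at 1×10^5 cells/ml; hGCGR at 2×10^5 cells/ml). Duplicate dilutions; EC50 from 4-parameter logistic fit of % Delta F.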

[2] = target: T2, human glucagon receptor (GCGR) (Homo sapiens, UniProt P47871); assay: cAMP assay, human GCGR cells
T2 construct: expressed in transfected cells
T2 sequence (P47871 26-477): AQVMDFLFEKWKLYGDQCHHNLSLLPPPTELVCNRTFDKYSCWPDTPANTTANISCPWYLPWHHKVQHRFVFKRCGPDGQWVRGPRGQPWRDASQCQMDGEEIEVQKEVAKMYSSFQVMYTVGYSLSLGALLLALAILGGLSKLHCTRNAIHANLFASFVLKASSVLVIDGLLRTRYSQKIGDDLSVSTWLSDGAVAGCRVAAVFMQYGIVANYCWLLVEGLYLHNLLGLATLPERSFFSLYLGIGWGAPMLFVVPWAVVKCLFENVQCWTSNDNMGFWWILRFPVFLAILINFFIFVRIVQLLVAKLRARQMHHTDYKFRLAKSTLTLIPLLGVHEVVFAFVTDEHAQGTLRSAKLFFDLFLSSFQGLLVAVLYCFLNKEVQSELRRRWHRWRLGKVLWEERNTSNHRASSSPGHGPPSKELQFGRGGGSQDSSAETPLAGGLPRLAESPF
How it was run: as §1

[3] = target: T3, human glucose-dependent insulinotropic peptide receptor (GIPR) (Homo sapiens, UniProt P48546); assay: cAMP assay, human GIPR cells
T3 construct: expressed in transfected cells
T3 sequence (P48546 22-466): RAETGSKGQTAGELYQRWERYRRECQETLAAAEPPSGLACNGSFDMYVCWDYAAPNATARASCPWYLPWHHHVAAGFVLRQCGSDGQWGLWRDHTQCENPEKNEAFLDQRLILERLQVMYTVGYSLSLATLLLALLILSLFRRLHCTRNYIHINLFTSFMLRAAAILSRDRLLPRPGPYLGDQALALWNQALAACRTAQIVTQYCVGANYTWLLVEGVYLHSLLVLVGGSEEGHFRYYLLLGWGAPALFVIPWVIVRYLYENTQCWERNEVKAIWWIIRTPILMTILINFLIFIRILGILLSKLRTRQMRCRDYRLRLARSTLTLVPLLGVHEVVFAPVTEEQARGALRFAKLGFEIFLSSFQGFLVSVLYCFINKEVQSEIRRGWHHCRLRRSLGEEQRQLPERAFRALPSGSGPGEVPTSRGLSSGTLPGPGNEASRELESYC
How it was run: as §1

[4] = cAMP assay, first determination (n1), read-out: Primary assay EC50 GLP-1R n1
[5] = cAMP assay, second determination (n2), read-out: Primary assay EC50 GLP-1R n2
[6] = mean of n1 and n2, read-out: Mean pM GLP-1R
[7] = cAMP assay, first determination (n1), read-out: Primary assay EC50 Gluc-R (n1)
[8] = cAMP assay, second determination (n2), read-out: Primary assay EC50 Gluc-R (n2)
[9] = cAMP assay, first determination (n1), read-out: Primary assay EC50 GIP-R (n1)
[10] = cAMP assay, second determination (n2), read-out: Primary assay EC50 GIP-R (n2)

Row | SMILES | EC50 [1, 4] [pM] | EC50 [1, 5] [pM] | EC50 [1, 6] [pM] | EC50 [2, 7] [nM] | EC50 [2, 8] [nM] | EC50 [3, 9] [nM] | EC50 [3, 10] [nM] | EC50 ([1]; tris-lipidated peptides, replicate n1, read-out: Primary assay EC50 GLP-1R n1) [pM] | EC50 ([2]; tris-lipidated peptides, first replicate, read-out: Primary assay EC50 Gluc-R (n1)) [nM] | EC50 ([3]; tris-lipidated peptides, first replicate, read-out: Primary assay EC50 GIP-R (n1)) [nM]
1 | CCCCCCCCCCCCCCCC(=O)N[C@@H](CCC(=O)NCCCC[C@H](NC(=O)[C@H](CC(=O)O)NC(=O)[C@H](CO)NC(=O)[C@@H](NC(=O)[C@](C)(Cc1ccccc1)NC(=O)[C@H](CO)NC(=O)CNC(=O)[C@H](CCC(N)=O)NC(=O)C(C)(C)NC(=O)[C@@H](N)Cc1c[nH]cn1)[C@@H](C)O)C(=O)N[C@@H](CO)C(=O)N[C@@H](CCC(=O)O)C(=O)N[C@@](C)(Cc1ccccc1)C(=O)N[C@@H](CC(C)C)C(=O)N[C@@H](CC(=O)O)C(=O)N[C@@H](CO)C(=O)N[C@@H](CCC(=O)O)C(=O)N[C@@H](CCCNC(=N)N)C(=O)N[C@@H](C)C(=O)N[C@@H](CCCNC(=N)N)C(=O)N[C@@H](CC(=O)O)C(=O)N[C@@](C)(Cc1ccccc1)C(=O)N[C@H](C(=O)N[C@@H](C)C(=O)N[C@@](C)(Cc1ccccc1)C(=O)N[C@@H](CC(C)C)C(=O)N[C@@H](CCC(=O)O)C(=O)N[C@@H](C)C(=O)NCC(=O)NCC(N)=O)C(C)C)C(=O)O [compound 13] (H-H[Aib]QGS[αMeF]TSDK([γGlu-Palmitoyl])SE[αMeF]LDSERARD[αMeF]VA[αMeF]LEAGG-NH2) | 22 | 9.6 | 16 | 7.6 | 4.1 | 0.69 | 0.63 |  |  | 
2 | CC[C@H](C)[C@H](NC(=O)[C@](C)(Cc1ccccc1)NC(=O)[C@H](CCC(=O)O)NC(=O)[C@](C)(CCCCN)NC(=O)[C@H](C)NC(=O)[C@H](C)NC(=O)[C@H](CCC(=O)O)NC(=O)CNC(=O)[C@H](CCC(=O)O)NC(=O)[C@H](CC(C)C)NC(=O)[C@](C)(Cc1ccccc1)NC(=O)[C@H](CO)NC(=O)[C@H](CO)NC(=O)[C@@H](NC(=O)[C@H](CC(=O)O)NC(=O)[C@H](CO)NC(=O)[C@H](CO)NC(=O)[C@](C)(Cc1ccccc1)NC(=O)[C@H](CO)NC(=O)CNC(=O)[C@H](CCC(=O)O)NC(=O)C(C)(C)NC(=O)[C@@H](N)Cc1c[nH]cn1)C(C)C)C(=O)N[C@@H](C)C(=O)N[C@@](C)(Cc1ccccc1)C(=O)N[C@H](C(=O)N[C@H](C(=O)N[C@@](C)(CCCCN)C(=O)NCC(=O)NCC(N)=O)C(C)C)C(C)C [compound 8] (H-H[Aib]EGS[αMeF]SSDVSS[αMeF]LEGEAA[αMeK]E[αMeF]IA[αMeF]VV[αMeK]GG-NH2; N-terminus assumed) | 71 | 110 | 88 | 7.8 | 12 | 23 | 23 |  |  | 
3 | CCCCCCCCCCCC(=O)N[C@@H](CCC(=O)NCCOCCOCC(=O)NCCOCCOCC(=O)NCCCC[C@H](NC(=O)CNC(=O)[C@H](CCC(=O)O)NC(=O)[C@H](CCCCNC(=O)COCCOCCNC(=O)COCCOCCNC(=O)CC[C@H](NC(=O)CCCCCCCCCCC)C(=O)O)NC(=O)[C@H](Cc1ccc(O)cc1)NC(=O)[C@H](CO)NC(=O)[C@](C)(CO)NC(=O)[C@@H](NC(=O)[C@H](CC(=O)O)NC(=O)[C@H](CO)NC(=O)[C@@H](NC(=O)[C@](C)(Cc1ccccc1)NC(=O)[C@H](CO)NC(=O)CNC(=O)[C@H](CCC(=O)O)NC(=O)C(C)(C)NC(=O)[C@@H](N)Cc1c[nH]cn1)[C@@H](C)O)C(C)C)C(=O)N[C@@H](C)C(=O)N[C@@H](C)C(=O)N[C@@](C)(CCCCN)C(=O)N[C@@H](CCC(=O)O)C(=O)N[C@@H](Cc1ccccc1)C(=O)N[C@H](C(=O)N[C@@H](C)C(=O)N[C@@H](Cc1ccccc1)C(=O)N[C@@H](CCCCNC(=O)COCCOCCNC(=O)COCCOCCNC(=O)CC[C@H](NC(=O)CCCCCCCCCCC)C(=O)O)C(=O)N[C@H](C(=O)N[C@@H](CCC(=O)O)C(=O)NCC(=O)NCC(N)=O)C(C)C)[C@@H](C)CC)C(=O)O [compound 484] (H-H[Aib]EGS[αMeF]TSDV[αMeS]SYK([AEEA-AEEA-γGlu-Lauroyl])EGK([AEEA-AEEA-γGlu-Lauroyl])AA[αMeK]EFIAFK([AEEA-AEEA-γGlu-Lauroyl])VEGG-NH2) |  |  |  |  |  |  |  | 163 | ≥ 19.9 | ≥ 19.9
4 | CC[C@H](C)[C@H](NC(=O)[C@](C)(Cc1ccccc1)NC(=O)[C@H](CCC(=O)O)NC(=O)[C@H](CCCCN)NC(=O)[C@H](C)NC(=O)[C@H](C)NC(=O)[C@H](CCC(=O)O)NC(=O)CNC(=O)[C@H](CCC(=O)O)NC(=O)[C@H](CC(C)C)NC(=O)[C@](C)(Cc1ccccc1)NC(=O)[C@H](CO)NC(=O)[C@H](CO)NC(=O)[C@@H](NC(=O)[C@H](CC(=O)O)NC(=O)[C@H](CO)NC(=O)[C@@H](NC(=O)[C@](C)(Cc1ccccc1)NC(=O)[C@H](CO)NC(=O)CNC(=O)[C@H](CCC(=O)O)NC(=O)C(C)(C)NC(=O)[C@@H](N)Cc1c[nH]cn1)[C@@H](C)O)C(C)C)C(=O)N[C@@H](C)C(=O)N[C@@](C)(Cc1ccccc1)C(=O)N[C@H](C(=O)N[C@H](C(=O)N[C@@H](CCCCN)C(=O)NCC(=O)NCC(=O)N[C@@H](CCCCNC(=O)COCCOCCNC(=O)COCCOCCNC(=O)CC[C@H](NC(=O)CCCCCCCCCCCCCCCCC(=O)O)C(=O)O)C(N)=O)C(C)C)C(C)C [compound 38] | 62 | 82 | 72 | 25 | 25 | 25 | 25 |  |  | 

The next lines start with the values.

Row | EC50 [1, 4] [pM] | EC50 [1, 5] [pM] | EC50 [1, 6] [pM] | EC50 [2, 7] [nM] | EC50 [2, 8] [nM] | EC50 [3, 9] [nM] | EC50 [3, 10] [nM] | EC50 ([1]; tris-lipidated peptides, replicate n1, read-out: Primary assay EC50 GLP-1R n1) [pM] | EC50 ([2]; tris-lipidated peptides, first replicate, read-out: Primary assay EC50 Gluc-R (n1)) [nM] | EC50 ([3]; tris-lipidated peptides, first replicate, read-out: Primary assay EC50 GIP-R (n1)) [nM] | SMILES
5 | 4900 | 4430 | 4660 | ≥ 26 | ≥ 25.6 | ≥ 26 | ≥ 25.6 |  |  |  | CC[C@H](C)[C@H](NC(=O)[C@](C)(Cc1ccccc1)NC(=O)[C@H](CCC(=O)O)NC(=O)[C@](C)(CCCCN)NC(=O)[C@H](C)NC(=O)[C@H](C)NC(=O)[C@H](CCC(=O)O)NC(=O)CNC(=O)[C@H](CCC(=O)O)NC(=O)[C@H](CC(C)C)NC(=O)[C@](C)(Cc1ccccc1)NC(=O)[C@H](CO)NC(=O)[C@](C)(CO)NC(=O)[C@@H](NC(=O)[C@H](CC(=O)O)NC(=O)[C@H](CO)NC(=O)[C@@H](NC(=O)[C@H](CCCCNC(=O)COCCOCCNC(=O)COCCOCCNC(=O)CC[C@H](NC(=O)CCCCCCCCCCCCCCCCC(=O)O)C(=O)O)NC(=O)[C@H](CO)NC(=O)CNC(=O)[C@H](CCC(=O)O)NC(=O)C(C)(C)NC(=O)[C@@H](N)Cc1c[nH]cn1)[C@@H](C)O)C(C)C)C(=O)N[C@@H](C)C(=O)N[C@@](C)(Cc1ccccc1)C(=O)N[C@H](C(=O)N[C@H](C(=O)N[C@@](C)(CCCCN)C(=O)NCC(=O)NCC(N)=O)C(C)C)C(C)C [compound 123]
6 | 36 | 18 | 27 | ≥ 90 | ≥ 90 | ≥ 90 | ≥ 90 |  |  |  | CCCCCCCCCCCCCCCC(=O)N[C@@H](CCC(=O)NCCCC[C@H](NC(=O)CNC(=O)CNC(=O)[C@](C)(CCCCN)NC(=O)[C@@H](NC(=O)[C@@H](NC(=O)[C@](C)(Cc1ccccc1)NC(=O)[C@H](C)NC(=O)[C@@H](NC(=O)[C@](C)(Cc1ccccc1)NC(=O)[C@H](CCC(=O)O)NC(=O)[C@](C)(CCCCN)NC(=O)[C@H](C)NC(=O)[C@H](C)NC(=O)[C@H](CCC(=O)O)NC(=O)CNC(=O)[C@H](CCC(=O)O)NC(=O)[C@H](CC(C)C)NC(=O)[C@](C)(Cc1ccccc1)NC(=O)[C@H](CO)NC(=O)[C@](C)(CO)NC(=O)[C@@H](NC(=O)[C@H](CC(=O)O)NC(=O)[C@H](CO)NC(=O)[C@@H](NC(=O)[C@](C)(Cc1ccccc1)NC(=O)[C@H](CO)NC(=O)CNC(=O)[C@H](CCC(=O)O)NC(=O)C(C)(C)NC(=O)[C@@H](N)Cc1c[nH]cn1)[C@@H](C)O)C(C)C)[C@@H](C)CC)C(C)C)C(C)C)C(N)=O)C(=O)O [compound 32] (H-H[Aib]EGS[αMeF]TSDV[αMeS]S[αMeF]LEGEAA[αMeK]E[αMeF]IA[αMeF]VV[αMeK]GGK([γGlu-Palmitoyl])-NH2)
7 | 350 | 430 | 389 | ≥ 100 | ≥ 100 | ≥ 100 | ≥ 100 |  |  |  | CC[C@H](C)[C@H](NC(=O)[C@](C)(Cc1ccccc1)NC(=O)[C@H](CCC(=O)O)NC(=O)[C@](C)(CCCCN)NC(=O)[C@H](C)NC(=O)[C@H](C)NC(=O)[C@H](CCC(=O)O)NC(=O)CNC(=O)[C@H](CCC(=O)O)NC(=O)[C@H](CC(C)C)NC(=O)[C@](C)(Cc1ccccc1)NC(=O)[C@H](CO)NC(=O)[C@H](CO)NC(=O)[C@@H](NC(=O)[C@H](CCC(=O)O)NC(=O)[C@H](CO)NC(=O)[C@@H](NC(=O)[C@](C)(Cc1ccccc1)NC(=O)[C@H](CO)NC(=O)CNC(=O)[C@H](CCC(=O)O)NC(=O)C(C)(C)NC(=O)[C@@H](N)Cc1c[nH]cn1)[C@@H](C)O)C(C)C)C(=O)N[C@@H](C)C(=O)N[C@@](C)(Cc1ccccc1)C(=O)N[C@H](C(=O)N[C@H](C(=O)N[C@@](C)(CCCCN)C(=O)NCC(=O)NCC(N)=O)C(C)C)C(C)C [compound 7] (H-H[Aib]EGS[αMeF]TSEVSS[αMeF]LEGEAA[αMeK]E[αMeF]IA[αMeF]VV[αMeK]GG-NH2)
